Source: ChEMBL document CHEMBL1177690, “Target-specific control of lymphoid-specific protein tyrosine phosphatase (Lyp) activity” (Bioorg Med Chem, 2010)

Experiment: Inhibition of Lyp CCPGCC mutant expressed in Escherichia coli […]

O=C(O)c1ccccc1-c1c2ccc(=O)c([As]3SCCS3)c-2oc2c([As]3SCCS3)c(O)ccc12
IC50: 625 nM
